The assay relates to L. amazonensis. In words: In vivo therapeutic response of hamsters experimentally infected with L. amazonensis (hamster model for cutaneous leishmaniasis). The conditions noted are these: for lesion size compared between treatment groups: hamsters infected with L. amazonensis, from the second month after the end of treatment to the end of the study; for activity against Leishmania parasites: leishmanicidal activity as shown in FIG. 4 and FIG. 5; for cure rate: hamster model for cutaneous leishmaniasis, L. amazonensis, outcome at end of study (3 months after the end of treatment). As to the method:
The formulation has been tested in vitro and in vivo for their leishmaninicidal activity.
A. TC1 (1.13 mg), B TC1 (4.01%), C: TC2 (1.35 mg), D: TC2 (3.0%), E: TC3 (1.72 mg), F: TC4 (1.25 mg), G: TC4 (4.03%), H: TC18 (3.0%), I: Mixture 1A, 2A, 3A (4.14%), J: Mixture 1A, 2A, 3A (7.77%), K: meglumina antimoniate (1209 mg), L: Vehicle (100 μl) and M: Vehicle (40 mg).
A. TC1 (1.13 mg), B TC1 (4.01%), C: TC2 (1.35 mg), D: TC2 (3.0%), E: TC3 (1.72 mg), F: TC4 (1.25 mg), G: TC4 (4.03%), H: TC18 (3.0%), I: Mixture 1A, 2A, 3A (4.14%), J: Mixture 1A, 2A, 3A (7.77%), K: meglumina antimoniate (1209 mg), L: Vehicle (100 μl) and M: Vehicle (40 mg). BoT: Beginning of Treatment; EoT: End of treatment. 1mAEoT: 1 month after the end of treatment, 2mAEoT: 2 months after the end of treatment, 3mAEoT: 3 months after the end of treatment. […] The efficacy may be increased using other dose or therapeutic schemes.

Turning to `O=C(N/N=C1\CCSc2ccccc21)c1ccncc1` [TC2, 4-Pyridinecarboxylic acid, 2-(2,3-dihydro-4H-1-benzothiopyran-4-ylidene)hydrazid], the “lesion size compared between treatment groups” value is “lowest lesion size” and the “activity against Leishmania parasites” value was “exhibited activity”.
For the molecule `O=C1CCS(=O)(=O)c2ccccc21` [TC18, Thiochroman-4-one, 1,1-dioxide], the cure rate is 63% and the “activity against Leishmania parasites” value is reported as “exhibited activity”.
Regarding `O=C(N/N=C1\CCSc2ccccc21)c1ccccc1` [TC1, Benzoic acid, 2-(2,3-dihydro-4H-1-benzothiopyran-4-ylidene)hydrazide], the cure rate was determined as 77%, the “lesion size compared between treatment groups” value is on record as “lowest lesion size” and the “activity against Leishmania parasites” value is on record as “exhibited activity”.
